The test system of this experiment is HrpW protein. Nature of the experiment: HrpW immunoblot analysis. It counts as cell-based, Pseudomonas syringae pv. tomato DC3000. The conditions noted are these: HIM supplemented with 250 μM. How it is done:
The HrpW protein level was determined by immunoblot using anti-HrpW antibody provided by Dr. Alan Collmer (Cornell University, Ithaca, N.Y.). Sample preparation was performed as previously described with modifications (Yuan and He 1996). Wild-type DC3000 was grown overnight in King's B medium at 28° C. The culture was washed with hrp-inducing medium (HIM) and resuspended in 40 ml of the same medium to an optical density (OD) at 600 nm of 0.1. To determine the effect of TCA on the HrpW protein level, TCA dissolved in DMSO was added to the culture at the final concentration of 250 μM and the culture was grown with moderate shaking at 28° C. DMSO was added to a separate culture as a negative control. After 9 h, the cells were collected by centrifugation at 4,000×g for 10 min and resuspended in 1 ml of phosphate buffered saline (PBS; 137 mM NaCl, 2.7 mM KCl, 4.3 mM Na2HPO4, and 1.47 mM KH2PO4 [pH 7.4]). […]
On the technique in general: In western blotting, separated proteins are transferred to a membrane and probed.

Here are results for one compound from patent US9260382B2, “Methods of reducing virulence in bacteria” (priority 2010, dated 2016).

On to `O=C(O)/C=C/c1ccccc1` [Compound 001, trans-cinnamic acid], for which the “HrpW protein in culture supernatants, immunoblot, in words” value was “absent from the culture supernatants” and the “HrpW protein in whole cell lysates, immunoblot, in words” value is on record as “undetectable in the whole cell lysates”.
